Laboratory results from US12344614B2, “Benzodiazepine derivatives as GABA a GAMMA1 PAM” (Hoffmann-La Roche Inc., priority 2021, dated 2025).
Like-named read-outs stand apart in the source and are kept apart here.

Legend:
[1] = biological target: human GABAA α1β3γ2 receptor (Homo sapiens (Human), UniProt P14867+P18507); assay: Radioligand binding assay, competition for [3H]Flumazenil, HEK293F cells; details: for LogSel: Log[Ki α1β3γ2 (nM)/Ki α2β2γ1 (nM)]; for γ2/γ1 Selectivity Ratio: Ki α1β3γ2 (nM)/Ki α2β2γ1 (nM)
Description: The affinity of compounds at GABAA γ2 subunit-containing receptors was measured by competition for [^3H]Flumazenil (81.1 Ci/mmol; Roche) binding to HEK293F cells expressing human (transiently transfected) receptors of composition α1β3γ2.
Harvested pellets from HEK293F cells expressing the different GABAA γ2 receptor subtypes were resuspended in Mannitol Buffer pH 7.2-7.4 and processed as described above for the cells expressing the GABAA γ1 subunit-containing receptors.
Assays were incubated to equilibrium for 1 hour at 4° C. and harvested onto GF/C uni-filters (Packard) by filtration using a Packard harvester and washing with ice-cold wash buffer (50 mM Tris; pH 7.5). After anhydrousing, filter-retained radioactivity was detected by liquid scintillation counting. Ki values were calculated using Excel-Fit (Microsoft) and are the means of two determinations.

h-GABA-A α2β2γ1 receptor = h-GABA-A α2β2γ1 receptor (Homo sapiens (Human), UniProt P47869+Q8N1C3); assay: Two-electrode voltage clamp electrophysiology in Xenopus oocytes expressing GABAA receptors; format: cell-based; details: for potentiation of the GABA-induced current: α2β2γ1 GABAA receptor subtype expressing oocytes, GABA EC20, reference PAMs
Description: Xenopus laevis oocytes at maturation stages V-VI were used for the expression of cloned mRNA encoding GABAA receptor subunits. Oocytes ready for RNA micro-injection were bought from Ecocyte, Castrop-Rauxel, Germany and stored in modified Barth's medium (composition in mM: NaCl 88, KCl 1, NaHCO3 2.4, HEPES 10, MgSO4 0.82, CaNO3 0.33, CaCl2 0.33, pH=7.5) at 20° C. until the experiment.
Oocytes were plated in 96-well plates for microinjection using the Roboinject automated instrument (MultiChannelSystems, Reutlingen, Germany). Approximately 50 nL of an aqueous solution containing the RNA transcripts for the subunits of the desired GABAA receptor subtype was injected into each oocyte. […] Oocytes were kept in modified Barth's medium (composition in mM: NaCl 88, KCl 1, NaHCO3 4, HEPES 10, MgSO4 0.82, CaNO3 0.33, CaCl, 0.33, pH=7.5) at 20° C. until the experiment.
Electrophysiological experiments were performed using the Roboocyte instrument (MultiChannelSystems, Reutlingen, Germany) on days 3 to 5 after the micro-injection of mRNA. During the experiment the oocytes were constantly superfused by a solution containing (in mM) NaCl 90, KCl 1, HEPES 5, MgCl2 1, CaCl2 1 (pH 7.4). Oocytes were impaled by two glass microelectrodes (resistance: 0.5-0.8 MΩ) which were filled with a solution containing KCl 1M+K-acetate 1.5 M and voltage-clamped to −80 mV. The recordings were performed at room temperature using the Roboocyte two-electrode voltage clamp system (Multichannelsystem). After an initial equilibration period of 1.5 min GABA was added for 1.5 min at a concentration evoking approximately 20% of a maximal current response (EC2O). After another rest interval of 2.5 min GABA was again added evoking a response of similar amplitude and shape. […] Current traces were recorded at a digitization rate of 10 Hz during and shortly before and after the GABA application.
Each compound and concentration was tested on at least 3 oocytes. Different oocytes were used for different compound concentrations.
For the analysis, the digitized current traces of the first and second GABA response were superimposed and, if necessary, rescaled to equal maximal amplitudes. The ratio between the two responses during the time interval of test compound application was calculated point by point. The extremum of the resulting “ratio trace” was taken as the efficacy (“Fold increase”) of the compound expressed as “% modulation of GABA EC20” (100*(Fold increase−1)).

[2] = biological target: human GABAA α2β2γ1 receptor (Homo sapiens (Human), UniProt P47869+Q8N1C3); assay: Radioligand binding assay, competition for [3H]RO7239181, membranes from HEK293F cells
Description: (§1) The affinity of compounds at GABAA γ1 subunit-containing receptors was measured by competition for [^3H]RO7239181 (67.3 Ci/mmol; Roche) binding to membranes from HEK293F cells (ThermoFisher R79007) expressing human (transiently transfected) receptors of composition α5β2γ1, α2β2γ1, α1β2γ1.
(§2) Harvested pellets from HEK293F cells expressing the different GABAA receptor subtypes were resuspended in Mannitol Buffer pH 7.2-7.4 (Mannitol 0.29M, Triethylamine 10 mM, Acetic acid 10 mM, EDTA 1 mM plus protease inhibitors (20 tablets Complete, Roche Diagnostics Cat. No. 05 056 489 001 per liter)), washed two times and then resuspended at 1:10 to 1:15 dilution in the same buffer. Cell disruption was performed by stirring the suspension in a Parr vessel #4637 at 435 psi for 15 minutes, and then the suspensions were centrifuged at 1000×g for 15 minutes at 4° C. (Beckman Avanti J-HC; rotor JS-4.2). The supernatant (S1) was transferred in a 21 Schott flask and the pellet (P1) was resuspended with Mannitol Buffer up to 175 ml. The resuspended pellet was transferred into a 250 ml Corning centrifugal beaker and centrifuged at 1500×g for 10 minutes at 4° C. (Beckman Avanti J-HC; rotor JS-4.2). The supernatant (S1) was then transferred in the 21 Schott flask and the pellet was discarded. The supernatants (S1) were centrifuged in 500 ml Beckman polypropylene centrifugal beaker at 15′000×g for 30 minutes at 4° C. (Beckman Avanti J-20 XP; rotor JLA-10.500). The pellet (P2) was resuspended with Mannitol Buffer 1:1 and frozen at −80° C. The supernatant (S2) was centrifuged in 100 ml Beckman polypropylene centrifugal tubes at 48000×g for 50 minutes at 4° C. (Beckman Avanti J-20 XP; rotor JA-18). The supernatant (S3) was discarded and the pellet (P3) was resuspended with 1:1 Mannitol Buffer. The P2 and P3 protein concentration was determined with the BIORAD Standard assay method with bovine serum albumin as standard and measured on the NANO-Drop 1000. The membrane suspension was aliquots (500 μl per tube) and stored at −80° C. until required.
(§3) Membrane homogenates were resuspended and polytronised (Polytron PT1200E Kinematica AG) in Potassium Phosphate 10 mM, KCl 100 mM binding buffer at pH 7.4 to a final assay concentration determined with a previous experiment.
(§4) Assays were incubated to equilibrium for 1 hour at 4° C. and then, membranes were filtered onto unifilter (96-well white microplate with bonded GF/C filters preincubated 20-50 minutes in 0.3% Polyethylenimine) with a Filtermate 196 harvester (Packard BioScience) and washed 4 times with cold Potassium Phosphate 10 mM pH 7.4, KCl 100 mM binding buffer. After anhydrousing, filter-retained radioactivity was detected by liquid scintillation counting. Ki values were calculated using Excel-Fit (Microsoft) and are the means of two determinations.

[3] = biological target: human GABAA α5β2γ1 receptor (Homo sapiens (Human), UniProt P31644+Q8N1C3); assay: as above
Description: as §1, with “α1β2γ1. For better protein expression of the α2 subunit-containing receptors, the 28 amino acid long signal peptide (Met1 to Ala28) of the human GABAA α2 subunit was substituted by the 31 amino acid long signal peptide (Met1 to Ser31) of human GABAA α5 subunit.” for “α1β2γ1.”
as §2, §3
as §4, with “Radioligand binding assays were carried out in a volume of 200 μL (96-well plates) which contained 100 μL of cell membranes, [^3H]RO7239181 at a concentration of 1.5 nM (α5β2γ1) or 20-30 nM (α1β2γ1, α2β2γ1) and the test compound in the range of [0.3-10000]×10^−9 M. Nonspecific binding was defined by 10×10^−6 (α5β2γ1) and 30×10^−6 M RO7239181 and typically represented less than 5% (α5β2γ1) and less than 20% (α1β2γ1, α2β2γ1) of the total binding. Assays” for “Assays”
Representative test results, obtained by the above described assay measuring binding affinity to HEK293 cells expressing human (h) receptors, are shown in the Table 1.

[4] = read-out: Ki h-GABAA α2β2γ1, [3H]RO7239181 20-30 nM, HEK293F membranes, 1 hour at 4° C., mean of two determinations

For `Cc1ncc2n1-c1ccc(Cl)cc1C(c1ccccc1F)=NC2` [Midazolam, reference compound], the LogSel [1] was −2.2 and the “potentiation of the GABA-induced current” value (h-GABA-A α2β2γ1 receptor) was ~60%.

Work on `CN1C(=O)CN=C(c2cc(O)ccc2Cl)c2cc(Cl)ccc21` [RE-A, 7-chloro-5-(2-chloro-5-hydroxy-phenyl)-1-methyl-3H-1,4-benzodiazepin-2-one, reference compound] yielded a LogSel [1] of −0.27 and a Ki ([2]; [3H]RO7239181 20-30 nM, HEK293F membranes, 1 hour at 4° C., mean of two determinations, read-out: Ki h-GABAA α2β2γ1) of 2.8 nM.

With `C[C@@H]1N=C(c2nc(O)ccc2F)c2c(ccc(C(F)(F)F)c2Cl)-n2cc(C(=O)NC3CC3)nc21` [Example 31, (4S)-7-chloro-N-cyclopropyl-6-(3-fluoro-6-hydroxy-2-pyridyl)-4-methyl-8-(trifluoromethyl)-4H-imidazo[1,2-a][1,4]benzodiazepine-2-carboxamide] the Ki [1] was 12500 nM, the “γ2/γ1 Selectivity Ratio” value [1] was 800.9 and the LogSel [1] was 2.90. The Ki [2] was 15.6 nM, the Ki [2, 4] was 15.6 nM and the Ki [3] was 4.4 nM.

With `Cc1cn2c(n1)[C@H](C)N=C(c1nc(O)ccc1Cl)c1c-2ccc(C(F)(F)F)c1Cl` [Example 27, 5-chloro-6-[(4S)-7-chloro-2,4-dimethyl-8-(trifluoromethyl)-4H-imidazo[1,2-a][1,4]benzodiazepin-6-yl]pyridin-2-ol] the Ki [1] was 3550 nM, the “γ2/γ1 Selectivity Ratio” value [1] was 679.2 and the LogSel [1] was 2.83. It also gave a Ki [2] of 5.22 nM, a Ki [2, 4] of 5.22 nM and a Ki [3] of 2.8 nM.

For `CN1C(=O)CN=C(c2ccccc2F)c2cc([N+](=O)[O-])ccc21` [Flunitrazepam, reference compound], the “potentiation of the GABA-induced current” value (h-GABA-A α2β2γ1 receptor) was ~60%.

For `Cc1nnc2n1-c1ccc(Cl)c(Cl)c1C(c1c(F)ccc(O)c1F)=N[C@H]2C` [Example 19, 2,4-difluoro-3-[(4S)-7,8-dichloro-1,4-dimethyl-4H-[1,2,4]triazolo[4,3-a][1,4]benzodiazepin-6-yl]phenol], the Ki [1] was 33 nM, the “γ2/γ1 Selectivity Ratio” value [1] was 10.6 and the LogSel [1] was 1.02. The Ki [2] was 3.12 nM, the Ki [2, 4] was 3.12 nM and the Ki [3] was 2.12 nM.

For `CC(C)NC(=O)c1cn2c(n1)[C@H](C)N=C(c1nc(O)ccc1F)c1c-2ccc(C(F)(F)F)c1Cl` [Example 32, (4S)-7-chloro-6-(3-fluoro-6-hydroxy-2-pyridyl)-N-isopropyl-4-methyl-8-(trifluoromethyl)-4H-imidazo[1,2-a][1,4]benzodiazepine-2-carboxamide], the Ki [1] was 8600 nM, the “γ2/γ1 Selectivity Ratio” value [1] was 796.0 and the LogSel [1] was 2.90. For the same compound, the Ki [2] was 10.8 nM, the Ki [2, 4] was 10.8 nM and the Ki [3] was 4.7 nM.

`Clc1ccc2c(c1)C(c1ccccc1)=NCc1nncn1-2` [Estazolam, reference compound] gave a LogSel [1] of −2.0.

`Cc1nnc2n1-c1ccc(Cl)cc1C(c1ccccc1Cl)=NC2` [Triazolam, reference compound] was tested, and the LogSel [1] was −1.5 and the “potentiation of the GABA-induced current” value (h-GABA-A α2β2γ1 receptor) was ~60%.

With `C[C@@H]1N=C(c2nc(O)ccc2F)c2c(ccc(C(F)(F)F)c2Cl)-n2nc(C(=O)N3CC(F)C3)nc21` [Example 21, [(4S)-7-chloro-6-(3-fluoro-6-hydroxy-2-pyridyl)-4-methyl-8-(trifluoromethyl)-4H-[1,2,4]triazolo[1,5-a][1,4]benzodiazepin-2-yl]-(3-fluoroazetidin-1-yl)methanone] the Ki ([1]; read-out: Ki h-GABAA α1β3γ2, [3H]Flumazenil 1 nM, HEK293F membranes, 1 hour at 4° C., mean of two determinations) was > 30000 nM, the “Efficacy (GABA) %” value (h-GABA-A α2β2γ1 receptor; % modulation of GABA EC20 = 100*(Fold increase−1), compound at 30-fold Ki α2β2γ1) was 73% and the Ki [2] was 11.8 nM. The Ki ([3]; read-out: Ki h-GABAA α5β2γ1, [3H]RO7239181 […], HEK293F membranes, 1 hour at 4° C., mean of two determinations) was 5.51 nM.

With `Cc1nnc2n1-c1ccc(Cl)cc1C(c1ccccc1)=NC2` [Alprazolam, reference compound] the LogSel [1] was −2.3.

For `CN1C(=O)CN=C(c2cc(O)ccc2F)c2cc(Cl)ccc21` [RE-B, 7-chloro-5-(2-fluoro-5-hydroxy-phenyl)-1-methyl-3H-1,4-benzodiazepin-2-one, reference compound], the Ki [1] was 1.1 nM, the “γ2/γ1 Selectivity Ratio” value [1] was 0.58 and the LogSel [1] was −0.24. It also gave a Ki [2] of 1.9 nM.
